Test: Toxicity: vital organs' indices and histopathology in EAC solid tumor bearing mice
Format: in vivo, Swiss albino mice
Details: for Brain Index / Heart Index / Kidney Index / Liver Index: mean ± SD (n = 6)

## Cc1cccc(NC(=O)Nc2ccc(Oc3ncnc4sc5c(c34)CCCC5)cc2)c1 [Compound 21b]
5 mg/kg/day po
  Brain Index: 0.0164 ± 0.004
  Heart Index: 0.0048 ± 0.0014
  Kidney Index: 0.012 ± 0.003
  Liver Index: 0.049 ± 0.01
10 mg/kg/day po
  Brain Index: 0.0167 ± 0.004
  Heart Index: 0.0046 ± 0.0017
  Kidney Index: 0.011 ± 0.003
  Liver Index: 0.051 ± 0.017
10 mg/kg, EAC solid tumor bearing mice (40x)
  Histopathological examination of liver, kidney, heart and brain samples: focally degenerated hepatocytes
oral, 5 and 10 mg/kg/day for 8 consecutive days
  Toxicity (overall statement): did not show any noticeable toxicity

Source: PMC4832243, “Discovery of Potent VEGFR-2 Inhibitors based on Furopyrimidine and Thienopyrimidne Scaffolds as Cancer Targeting Agents” (Scientific Reports, 2016)
